According to ChEMBL document CHEMBL1201862, “PubChem BioAssay data set” (2004):
Activity calls are given as the source filed them.

What was measured:
[1] = THP-1 cell cytotoxicity, dose response, cytotoxicity control for non-replicating M. tuberculosis project (AID 489025); format: functional
[2] = growth suppression of beta-catenin-knockout colon cells, dose response, cell-based, HCT116, human colon tumor (AID 1045); format: functional;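 further: HCT116 colon tumor cells with beta catenin knocked out; cells exposed to compound for 60 hours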
Exodeoxyribonuclease V = target: T1, Exodeoxyribonuclease V (Escherichia coli (strain K12), UniProt P04993+P07648+P08394); test: E. coli RecBCD inhibitors, dose response, counter-screen for AddAB inhibitor project, absorbance, V66 E. coli, mutant T4 phage (AID 492957); format: functional, cell-based, Escherichia coli str. K-12 substr. MG1655
T1 sequence (P04993 whole entry): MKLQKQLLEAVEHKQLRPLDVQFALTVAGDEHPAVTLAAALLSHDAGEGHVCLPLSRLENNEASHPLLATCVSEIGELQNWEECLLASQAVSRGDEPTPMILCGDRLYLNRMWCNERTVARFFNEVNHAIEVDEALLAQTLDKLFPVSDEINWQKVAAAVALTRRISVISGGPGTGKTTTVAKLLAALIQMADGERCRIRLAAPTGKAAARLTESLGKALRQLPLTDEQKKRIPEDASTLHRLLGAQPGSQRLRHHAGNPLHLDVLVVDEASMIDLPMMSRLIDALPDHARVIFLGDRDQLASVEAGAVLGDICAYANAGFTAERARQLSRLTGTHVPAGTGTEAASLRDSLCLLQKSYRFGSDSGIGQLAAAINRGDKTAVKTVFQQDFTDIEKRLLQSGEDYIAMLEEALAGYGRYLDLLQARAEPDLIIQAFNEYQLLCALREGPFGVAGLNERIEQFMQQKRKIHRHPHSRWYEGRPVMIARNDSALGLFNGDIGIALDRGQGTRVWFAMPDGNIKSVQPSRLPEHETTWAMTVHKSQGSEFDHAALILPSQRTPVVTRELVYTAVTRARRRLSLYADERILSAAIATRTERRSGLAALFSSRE
T1 sequence (P07648 whole entry): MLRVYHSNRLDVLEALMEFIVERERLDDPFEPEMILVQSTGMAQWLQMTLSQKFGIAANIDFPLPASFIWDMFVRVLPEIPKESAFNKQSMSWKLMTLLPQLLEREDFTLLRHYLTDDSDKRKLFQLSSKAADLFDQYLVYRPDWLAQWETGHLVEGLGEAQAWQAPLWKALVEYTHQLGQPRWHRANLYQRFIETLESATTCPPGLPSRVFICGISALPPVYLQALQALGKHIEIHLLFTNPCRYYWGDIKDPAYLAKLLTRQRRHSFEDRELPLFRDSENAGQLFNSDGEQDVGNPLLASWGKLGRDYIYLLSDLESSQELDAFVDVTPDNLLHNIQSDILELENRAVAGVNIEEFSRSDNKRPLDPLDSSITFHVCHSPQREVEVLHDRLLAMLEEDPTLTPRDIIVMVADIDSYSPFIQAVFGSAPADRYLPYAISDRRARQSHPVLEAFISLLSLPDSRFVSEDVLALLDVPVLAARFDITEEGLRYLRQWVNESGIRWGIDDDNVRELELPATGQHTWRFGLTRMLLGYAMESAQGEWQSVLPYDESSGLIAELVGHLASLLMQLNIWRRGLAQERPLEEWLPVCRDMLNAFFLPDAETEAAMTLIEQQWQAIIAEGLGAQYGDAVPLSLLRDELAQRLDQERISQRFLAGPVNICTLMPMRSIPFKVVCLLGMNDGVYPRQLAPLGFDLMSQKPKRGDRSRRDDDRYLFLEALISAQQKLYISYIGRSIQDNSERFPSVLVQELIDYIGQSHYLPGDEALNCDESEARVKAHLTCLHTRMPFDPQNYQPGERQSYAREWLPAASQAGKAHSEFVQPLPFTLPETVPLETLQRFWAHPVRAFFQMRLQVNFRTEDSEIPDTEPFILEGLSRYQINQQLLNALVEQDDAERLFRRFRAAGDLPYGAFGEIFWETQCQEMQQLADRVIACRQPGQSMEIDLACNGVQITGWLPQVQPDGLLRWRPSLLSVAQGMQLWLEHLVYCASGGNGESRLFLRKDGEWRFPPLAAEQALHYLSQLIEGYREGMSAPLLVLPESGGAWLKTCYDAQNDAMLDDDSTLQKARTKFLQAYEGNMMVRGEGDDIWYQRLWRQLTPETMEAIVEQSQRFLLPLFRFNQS
T1 sequence (P08394 whole entry): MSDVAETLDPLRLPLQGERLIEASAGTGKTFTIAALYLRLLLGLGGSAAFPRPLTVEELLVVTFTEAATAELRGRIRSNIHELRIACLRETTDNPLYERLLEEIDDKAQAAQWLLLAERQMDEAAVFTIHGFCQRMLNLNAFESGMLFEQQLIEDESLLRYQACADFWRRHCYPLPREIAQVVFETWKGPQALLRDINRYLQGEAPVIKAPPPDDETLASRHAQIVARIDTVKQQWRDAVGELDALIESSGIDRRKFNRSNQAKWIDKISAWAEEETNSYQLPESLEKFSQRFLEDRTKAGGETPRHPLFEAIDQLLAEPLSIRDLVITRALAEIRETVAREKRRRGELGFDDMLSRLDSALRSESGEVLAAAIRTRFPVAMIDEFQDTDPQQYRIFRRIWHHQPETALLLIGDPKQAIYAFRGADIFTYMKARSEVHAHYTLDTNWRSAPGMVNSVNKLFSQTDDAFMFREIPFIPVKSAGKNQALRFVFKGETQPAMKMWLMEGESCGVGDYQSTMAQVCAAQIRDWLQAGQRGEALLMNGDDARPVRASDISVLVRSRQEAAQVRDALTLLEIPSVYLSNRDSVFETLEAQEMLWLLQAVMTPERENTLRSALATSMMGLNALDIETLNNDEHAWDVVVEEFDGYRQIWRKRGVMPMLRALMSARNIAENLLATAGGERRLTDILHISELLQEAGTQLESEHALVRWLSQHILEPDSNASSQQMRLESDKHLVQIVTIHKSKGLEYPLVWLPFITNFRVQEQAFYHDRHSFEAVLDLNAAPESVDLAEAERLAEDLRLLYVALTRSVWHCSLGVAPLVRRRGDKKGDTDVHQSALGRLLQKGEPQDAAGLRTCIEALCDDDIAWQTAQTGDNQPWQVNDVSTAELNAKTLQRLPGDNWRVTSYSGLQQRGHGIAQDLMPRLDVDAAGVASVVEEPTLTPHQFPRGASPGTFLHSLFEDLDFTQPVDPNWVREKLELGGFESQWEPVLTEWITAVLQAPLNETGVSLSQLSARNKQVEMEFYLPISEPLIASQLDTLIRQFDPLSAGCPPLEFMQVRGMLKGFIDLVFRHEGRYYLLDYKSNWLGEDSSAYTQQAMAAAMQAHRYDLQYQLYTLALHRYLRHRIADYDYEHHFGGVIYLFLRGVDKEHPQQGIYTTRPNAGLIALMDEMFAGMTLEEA

HEK293 = test: inhibitors of LMP1-driven NF-kB reporter, dose response, cell-based, HEK293, luciferase, cherry-pick (AID 588343); format: functional; settings: Homo sapiens
Jurkat = test: SAR Analysis of small molecule inhibitors of T-cell specific antigen receptor-induced NF-kB activation in a Jurkat cell line using a luminescence assay - Set 2. [Related pubchem assays (depositor defined):AID435003, AID435012, AID465]; format: functional, cell-based; settings: Homo sapiens

For `CCOC(=O)C1=C(c2ccccc2)N=C(N)NC1c1ccc(OCc2ccc(Cl)cc2)c(OC)c1` (stereo not given), the CC50 [1] was 9.43 µM (active).

With `CCOC(=O)c1c(C)[nH]c2c1-c1ccccc1C(=O)C2=O` the EC50 [2] was 0.403 µM (active).

In the case of `CC(=O)NC(c1ccc2ccccc2c1)c1ccc2cccnc2c1O` (stereo not given), the IC50 (Exodeoxyribonuclease V) is reported as > 118 µM (inactive), the AC50 (HEK293) is reported as 4.18 µM (active) and the IC50 (Jurkat) is reported as 1.89 µM (active).
